Reference: patent US20210045385A1, “PYRIDAZINONE-SUBSTITUTED KETOXIMES AS HERBICIDES” (FMC Corporation, priority 2018, published 2021)

Columns and labels:
Assay type in all cases: in vivo
kochia (Bassia scoparia) [1] = assay: Test C postemergence, visual plant response rating
How it was run: (§1)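 Compounds in a non-phytotoxic solvent with surfactant were applied as a directed soil spray preemergence or to 2–10 cm, one- to two-leaf plants postemergence, in loam–sand soil. After about 10 d in a greenhouse, injury was visually rated against untreated controls on a 0–100 scale (100 = complete control).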

[2] = tested on: foxtail, giant (giant foxtail, Setaria faberi); assay: Test C postemergence, visual plant response rating
How it was run: as §1

[3] = tested on: galium (catchweed bedstraw, Galium aparine); assay: Test C postemergence, visual plant response rating
How it was run: as §1

[4] = tested on: Italian ryegrass (Lolium mutiflorum); assay: Test C postemergence, visual plant response rating
How it was run: as §1

[5] = tested on: blackgrass (Alopecurus myosuroides); assay: Test C postemergence, visual plant response rating
How it was run: as §1

[6] = tested on: ragweed (common ragweed, Ambrosia artemisiifolia); assay: Test C postemergence, visual plant response rating
How it was run: as §1

[7] = tested on: wheat (Triticum aestivum); assay: Test C postemergence, visual plant response rating
How it was run: as §1

corn (Zea mays) = assay: Test C postemergence, visual plant response rating
How it was run: as §1

[8] = tested on: pigweed (Amaranthus retroflexus); assay: Test C postemergence, visual plant response rating
How it was run: as §1

[9] = tested on: barnyardgrass (Echinochloa crus-galli); assay: Test C postemergence, visual plant response rating
How it was run: as §1

[10] = tested on: duck salad (Heteranthera limosa); assay: Test D flooded paddy test, visual plant response rating; conditions: 250 g ai/ha, scale 0 to 100 (0 no effect, 100 complete control), 13 to 15 d
How it was run: (§2)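 Plants were grown to the 2-leaf stage, pots flooded to 3 cm above soil, and compound applied directly into the paddy water, with the depth held throughout. After 13 to 15 d in a greenhouse, response was rated visually against untreated controls on a 0–100 scale (0 no effect, 100 complete control).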

rice (Oryza sativa) = assay: as above; conditions: 250 g ai/ha, scale 0 to 100 (0 no effect, 100 complete control), 13 to 15 d
How it was run: as §2

[11] = tested on: sedge umbrella (small-flower umbrella sedge, Cyperus difformis); assay: as above; conditions: 250 g ai/ha, scale 0 to 100 (0 no effect, 100 complete control), 13 to 15 d
How it was run: as §2

[12] = tested on: barnyardgrass (Echinochloa crus-galli); assay: as above; conditions: 250 g ai/ha, scale 0 to 100 (0 no effect, 100 complete control), 13 to 15 d
How it was run: as §2

kochia (Bassia scoparia) [13] = assay: Test C preemergence, visual plant response rating
How it was run: as §1

[14] = tested on: foxtail, giant (giant foxtail, Setaria faberi); assay: Test C preemergence, visual plant response rating
How it was run: as §1

[15] = tested on: Italian ryegrass (Lolium mutiflorum); assay: Test C preemergence, visual plant response rating
How it was run: as §1

[16] = tested on: ragweed (common ragweed, Ambrosia artemisiifolia); assay: Test C preemergence, visual plant response rating
How it was run: as §1

[17] = tested on: pigweed (Amaranthus retroflexus); assay: Test C preemergence, visual plant response rating
How it was run: as §1

[18] = tested on: barnyardgrass (Echinochloa crus-galli); assay: Test C preemergence, visual plant response rating
How it was run: as §1

[19] = Test C, postemergence, 125 g ai/ha
[20] = Test C, 31 g ai/ha, 0 is no effect, 100 is complete control
[21] = Test C, 125 g ai/ha, 0 is no effect, 100 is complete control
[22] = Test C, postemergence, 31 g ai/ha

Row | SMILES | Kochia plant response rating (0 to 100 scale) (kochia (Bassia scoparia) [1]; [19]) | Foxtail, Giant plant response rating (0 to 100 scale) [2, 19] | Galium plant response rating (0 to 100 scale) [3, 19] | Ryegrass, Italian plant response rating (0 to 100 scale) ([4]; Postemergence, 31 g ai/ha) | Ryegrass, Italian plant response rating (0 to 100 scale) [4, 19] | Blackgrass plant response rating (0 to 100 scale) [5, 19] | Ragweed plant response rating (0 to 100 scale) ([6]; Postemergence, 31 g ai/ha) | Ragweed plant response rating (0 to 100 scale) [6, 19] | Wheat plant response rating (0 to 100 scale) ([7]; Postemergence, 31 g ai/ha) | Wheat plant response rating (0 to 100 scale) [7, 19] | Corn plant response rating (0 to 100 scale) (corn (Zea mays); [19]) | Pigweed plant response rating (0 to 100 scale) ([8]; Postemergence, 31 g ai/ha) | Pigweed plant response rating (0 to 100 scale) [8, 19] | Barnyardgrass plant response rating (0 to 100 scale) [9, 19] | Plant response rating, Ducksalad (Flood) [10] | Plant response rating, Rice (Flood) (rice (Oryza sativa)) | Plant response rating, Sedge, Umbrella (Flood) [11] | Plant response rating, Barnyardgrass (Flood) [12] | Kochia plant response rating (0 to 100 scale) (kochia (Bassia scoparia) [13]; [20]) | Foxtail, Giant plant response rating (0 to 100 scale) [14, 20] | also measured
1 | C=CCON=C(c1cc(Cl)cc(Cl)c1Cl)c1c(O)c(C)nn(C)c1=O [Compound 294] | 30 | 60 | 100 | 50 | 100 | 0 | 80 | 100 | 0 | 60 | 10 | 20 | 20 | 60 | 0 | 0 | 0 | 0 | 0 | 70 | Kochia plant response rating (0 to 100 scale) (kochia (Bassia scoparia) [1]; Postemergence, 31 g ai/ha): 20; Foxtail, Giant plant response rating (0 to 100 scale) ([2]; Postemergence, 31 g ai/ha): 40; Galium plant response rating (0 to 100 scale) ([3]; Postemergence, 31 g ai/ha): 80; Blackgrass plant response rating (0 to 100 scale) ([5]; Postemergence, 31 g ai/ha): 0; Corn plant response rating (0 to 100 scale) (corn (Zea mays); Postemergence, 31 g ai/ha): 0; Barnyardgrass plant response rating (0 to 100 scale) ([9]; Postemergence, 31 g ai/ha): 20; Kochia plant response rating (0 to 100 scale) (kochia (Bassia scoparia) [13]; [21]): 50; Foxtail, Giant plant response rating (0 to 100 scale) [14, 21]: 100; Ryegrass, Italian plant response rating (0 to 100 scale) [15, 20]: 60; Ryegrass, Italian plant response rating (0 to 100 scale) [15, 21]: 100; Ragweed plant response rating (0 to 100 scale) [16, 20]: 70; Ragweed plant response rating (0 to 100 scale) [16, 21]: 100; Pigweed plant response rating (0 to 100 scale) [17, 20]: 20; Pigweed plant response rating (0 to 100 scale) [17, 21]: 80; Barnyardgrass plant response rating (0 to 100 scale) [18, 20]: 70; Barnyardgrass plant response rating (0 to 100 scale) [18, 21]: 100
2 | CO/N=C(\c1cccc(/C=C\Cl)c1)c1c(O)c(C)nn(C)c1=O [Compound 288] | 30 | 90 | 80 | 40 | 100 | 40 | 30 | 60 | 0 | 0 | 20 | 0 | 30 | 100 | 0 | 0 | 0 | 0 | 0 | 40 | Kochia plant response rating (0 to 100 scale) (kochia (Bassia scoparia) [1]; Postemergence, 31 g ai/ha): 10; Foxtail, Giant plant response rating (0 to 100 scale) ([2]; Postemergence, 31 g ai/ha): 80; Galium plant response rating (0 to 100 scale) ([3]; Postemergence, 31 g ai/ha): 60; Blackgrass plant response rating (0 to 100 scale) ([5]; Postemergence, 31 g ai/ha): 40; Corn plant response rating (0 to 100 scale) (corn (Zea mays); Postemergence, 31 g ai/ha): 10; Barnyardgrass plant response rating (0 to 100 scale) ([9]; Postemergence, 31 g ai/ha): 70; Kochia plant response rating (0 to 100 scale) (kochia (Bassia scoparia) [13]; [21]): 30; Foxtail, Giant plant response rating (0 to 100 scale) [14, 21]: 100; Ryegrass, Italian plant response rating (0 to 100 scale) [15, 20]: 70; Ryegrass, Italian plant response rating (0 to 100 scale) [15, 21]: 100; Ragweed plant response rating (0 to 100 scale) [16, 20]: 10; Ragweed plant response rating (0 to 100 scale) [16, 21]: 20; Pigweed plant response rating (0 to 100 scale) [17, 20]: 0; Pigweed plant response rating (0 to 100 scale) [17, 21]: 0; Barnyardgrass plant response rating (0 to 100 scale) [18, 20]: 70; Barnyardgrass plant response rating (0 to 100 scale) [18, 21]: 100
3 | CO/N=C(\c1cc(Cl)cc(Br)c1)c1c(O)c(C)nn(C)c1=O [Compound 157] | 100 | 90 | 100 | 70 | 100 | 20 | 70 | 100 | 0 | 60 | 30 | 20 | 60 | 80 | 0 | 0 | 0 | 0 | 50 | 80 | Kochia plant response rating (0 to 100 scale) (kochia (Bassia scoparia) [1]; [22]): 80; Foxtail, Giant plant response rating (0 to 100 scale) [2, 22]: 60; Galium plant response rating (0 to 100 scale) [3, 22]: 90; Blackgrass plant response rating (0 to 100 scale) [5, 22]: 10; Corn plant response rating (0 to 100 scale) (corn (Zea mays); [22]): 10; Barnyardgrass plant response rating (0 to 100 scale) [9, 22]: 30; Kochia plant response rating (0 to 100 scale) (kochia (Bassia scoparia) [13]; 125 g ai/ha): 100; Foxtail, Giant plant response rating (0 to 100 scale) ([14]; 125 g ai/ha): 100; Ryegrass, Italian plant response rating (0 to 100 scale) ([15]; 125 g ai/ha): 100; Ryegrass, Italian plant response rating (0 to 100 scale) [15, 20]: 90; Ragweed plant response rating (0 to 100 scale) ([16]; 125 g ai/ha): 100; Ragweed plant response rating (0 to 100 scale) [16, 20]: 100; Pigweed plant response rating (0 to 100 scale) ([17]; 125 g ai/ha): 40; Pigweed plant response rating (0 to 100 scale) [17, 20]: 10; Barnyardgrass plant response rating (0 to 100 scale) ([18]; 125 g ai/ha): 90; Barnyardgrass plant response rating (0 to 100 scale) [18, 20]: 70
